The values that follow come from patent US20100216779A1 (GLAXOSMITHKLINE LLC, priority 2007, published 2010).

Where only a bound is given, the exact number is not on record here.

Holding throughout (type): cell-based
The test system of one assay is COLO205 (colon). Put plainly: Inhibition of cell proliferation, CellTiter-Glo, COLO205. Particulars: Homo sapiens, COLO 205, 72 h. The protocol: C. Inhibition of Cell Proliferation
Cell proliferation was measured by either CellTiter-Glo (measures cellular ATP level as a surrogate for total cell number) or by InCell analyzer (counts number of nuclei as a measure of cell number). For CellTiter-Glo assay, exponentially growing cell lines of different tumor origins, cultured in appropriate media containing 10% fetal bovine serum at 37° C. in a 5% CO2 incubator, were plated at low density (less than 2000 cells/well) in 96-well plates. […] Several wells were left untreated as a control. Seventy two hours post-treatment, cell numbers were determined using 50-100 ul per well of CellTiter-Glo (Promega #G7573). Plates were incubated at 37° C. for 30 minutes and the chemiluminescent signal was read on the Victor V or Envison 2100 reader. […]

Assay [1] deals with T1, human IGF-1R (NIH-3T3 cells over expressing human IGF-1R) (Homo sapiens, UniProt P08069).
T1 construct: expressed in transfected cells; host or cells: NIH-3T3 (mouse fibroblasts)
The experiment in a line: IGF-1R cellular autophosphorylation (DELFIA). The following applies: IGF-1 stimulated. The method, then: (§1) D. IGF-1R and IR Cellular Autophosphorylation (DELFIA)
(§2) NIH-3T3 cells over expressing human IGF-1R or IR were plated in 96-well plates (10,000 cells/well) in culture media containing 10% fetal bovine serum and incubated at 37° C. in a 5% CO2 incubator. Twenty four hours post-plating, cells were treated with different concentrations of test compounds ranging from 30 uM to 1.5 nM. Two hours after compound addition, cells were stimulated with either human IGF-1 (30 ng/mL) or insulin (3 ug/mL) for 15 minutes. Cell lysates are analyzed for phosphorylated receptors using dissociation enhanced lanthanide fluor-immuno assay (DELFIA) with anti-IGF-1R (MAB391, R&D Systems, Minneapolis, Minn.) or anti-IR[…](sc-711, Santa Cruz Biotechnology, Santa Cruz, Calif.) capture antibody and europium-labeled anti-pTyr antibody (Eu-N1 PT66, Perkin Elmer, Waltham, Mass.) for detection. The fluorescence signal for cells treated with compounds was expressed as percent relative to 100% stimulation (IGF-1 or insulin stimulated signal). […]

Assay [2] deals with T2, IR (NIH-3T3 cells over expressing human IGF-1R or IR) (Homo sapiens, UniProt P06213).
T2 construct: expressed in transfected cells; host or cells: NIH-3T3 (mouse fibroblasts)
Put plainly: IR cellular autophosphorylation (DELFIA). Particulars: NIH-3T3 cells over expressing IR, insulin stimulated. The protocol: as §1, §2

T1 sequence (P08069 31-1367): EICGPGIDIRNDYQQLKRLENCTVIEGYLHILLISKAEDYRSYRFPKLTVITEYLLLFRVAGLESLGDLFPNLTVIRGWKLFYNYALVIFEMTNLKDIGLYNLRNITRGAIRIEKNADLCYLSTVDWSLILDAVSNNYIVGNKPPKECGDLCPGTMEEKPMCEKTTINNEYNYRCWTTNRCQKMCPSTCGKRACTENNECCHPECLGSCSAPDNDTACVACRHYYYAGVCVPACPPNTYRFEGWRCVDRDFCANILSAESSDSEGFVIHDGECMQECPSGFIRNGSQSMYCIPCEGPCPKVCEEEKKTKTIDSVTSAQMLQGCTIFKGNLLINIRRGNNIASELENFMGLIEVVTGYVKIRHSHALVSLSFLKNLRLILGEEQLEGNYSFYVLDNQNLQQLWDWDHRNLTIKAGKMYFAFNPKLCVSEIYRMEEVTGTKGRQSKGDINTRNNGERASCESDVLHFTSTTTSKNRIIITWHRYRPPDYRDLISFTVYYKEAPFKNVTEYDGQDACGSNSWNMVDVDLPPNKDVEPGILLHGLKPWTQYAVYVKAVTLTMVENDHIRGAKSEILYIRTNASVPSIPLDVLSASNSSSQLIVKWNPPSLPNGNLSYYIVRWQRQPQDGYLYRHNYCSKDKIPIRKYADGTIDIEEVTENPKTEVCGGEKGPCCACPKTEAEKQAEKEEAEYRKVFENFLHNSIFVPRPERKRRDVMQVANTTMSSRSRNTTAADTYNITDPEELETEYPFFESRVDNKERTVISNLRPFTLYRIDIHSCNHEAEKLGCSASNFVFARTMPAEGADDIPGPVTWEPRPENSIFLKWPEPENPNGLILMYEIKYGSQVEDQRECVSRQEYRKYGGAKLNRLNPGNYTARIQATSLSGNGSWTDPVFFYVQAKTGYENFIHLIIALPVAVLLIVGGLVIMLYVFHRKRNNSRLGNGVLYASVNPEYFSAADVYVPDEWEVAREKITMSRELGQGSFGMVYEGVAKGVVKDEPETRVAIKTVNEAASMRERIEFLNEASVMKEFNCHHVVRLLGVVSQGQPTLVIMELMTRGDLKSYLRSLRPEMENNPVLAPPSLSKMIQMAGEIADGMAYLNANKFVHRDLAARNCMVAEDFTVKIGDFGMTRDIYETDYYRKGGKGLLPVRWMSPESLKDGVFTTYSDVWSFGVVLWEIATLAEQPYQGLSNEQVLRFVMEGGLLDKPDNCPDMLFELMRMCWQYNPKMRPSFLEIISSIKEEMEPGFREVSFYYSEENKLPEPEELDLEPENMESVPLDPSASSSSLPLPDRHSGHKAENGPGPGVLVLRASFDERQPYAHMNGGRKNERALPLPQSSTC
T2 sequence (P06213 28-1382): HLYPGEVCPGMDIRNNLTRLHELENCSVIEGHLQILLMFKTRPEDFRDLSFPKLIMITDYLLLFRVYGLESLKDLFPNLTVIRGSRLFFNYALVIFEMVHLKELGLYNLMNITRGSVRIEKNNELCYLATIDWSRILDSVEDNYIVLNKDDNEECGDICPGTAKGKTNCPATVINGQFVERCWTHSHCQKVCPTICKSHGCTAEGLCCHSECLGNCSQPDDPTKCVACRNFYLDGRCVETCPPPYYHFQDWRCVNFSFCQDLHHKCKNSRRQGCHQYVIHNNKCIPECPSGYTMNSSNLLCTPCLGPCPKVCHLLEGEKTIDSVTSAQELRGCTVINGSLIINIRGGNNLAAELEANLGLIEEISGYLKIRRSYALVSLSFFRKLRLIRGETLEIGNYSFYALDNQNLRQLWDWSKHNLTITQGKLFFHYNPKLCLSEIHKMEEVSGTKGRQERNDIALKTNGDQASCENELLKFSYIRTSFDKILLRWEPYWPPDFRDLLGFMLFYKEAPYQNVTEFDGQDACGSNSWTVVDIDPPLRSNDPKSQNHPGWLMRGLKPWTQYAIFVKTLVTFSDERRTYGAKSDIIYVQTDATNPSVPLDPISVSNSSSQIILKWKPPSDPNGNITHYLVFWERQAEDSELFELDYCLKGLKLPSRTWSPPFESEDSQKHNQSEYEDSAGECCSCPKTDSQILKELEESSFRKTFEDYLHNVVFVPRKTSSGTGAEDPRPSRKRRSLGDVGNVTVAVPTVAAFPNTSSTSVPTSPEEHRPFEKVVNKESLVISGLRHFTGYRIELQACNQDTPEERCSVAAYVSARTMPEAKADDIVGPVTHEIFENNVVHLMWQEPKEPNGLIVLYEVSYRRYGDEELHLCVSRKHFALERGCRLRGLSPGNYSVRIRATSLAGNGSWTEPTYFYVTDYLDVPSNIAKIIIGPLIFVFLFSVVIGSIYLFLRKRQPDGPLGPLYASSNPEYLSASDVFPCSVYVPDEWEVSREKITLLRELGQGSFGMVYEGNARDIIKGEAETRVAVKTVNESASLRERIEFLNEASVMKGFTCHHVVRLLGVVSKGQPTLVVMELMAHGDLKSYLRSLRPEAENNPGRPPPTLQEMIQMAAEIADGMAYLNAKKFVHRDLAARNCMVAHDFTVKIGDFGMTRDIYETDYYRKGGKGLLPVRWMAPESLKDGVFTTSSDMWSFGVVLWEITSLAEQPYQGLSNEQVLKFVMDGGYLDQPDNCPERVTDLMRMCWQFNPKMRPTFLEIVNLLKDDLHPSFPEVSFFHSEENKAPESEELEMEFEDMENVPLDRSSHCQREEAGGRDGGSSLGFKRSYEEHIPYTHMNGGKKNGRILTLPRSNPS

By IC50 is commonly meant the concentration that inhibits the measured activity by half. A higher IC50 goes with lower potency. For the compound `CC(C)Oc1cc(N2CCC(N3CCCCC3)CC2)ccc1Nc1nccc(-c2c(-c3cccc(C(=O)Nc4c(F)cccc4F)c3)nc3ccccn23)n1` [Example 35, 3-{3-[2-({4-(1,4′-bipiperidin-1′-yl)-2-[(1-methylethyl)oxy]phenyl}amino)-4-pyrimidinyl]imidazo[1,2-a]pyridin-2-yl}-N-(2,6-difluorophenyl)benzamide], the results for the IC50 (in the assay on COLO205 (colon); in assay [1]; in assay [2]) were 0.25 to 1 µM, 0.1 to 0.5 µM and 0.1 to 0.5 µM, respectively.

Turning to `COc1cc(N2CCC(N3CCN(C)CC3)CC2)ccc1Nc1nccc(-c2c(-c3cccc(C(=O)Nc4c(F)cccc4F)c3)nc3ccccn23)n1` [Example 79, N-(2,6-difluorophenyl)-3-{3-[2-({2-(methyloxy)-4-[4-(4-methyl-1-piperazinyl)-1-piperidinyl]phenyl}amino)-4-pyrimidinyl]imidazo[1,2-a]pyridin-2-yl}benzamide], the IC50 is less than 0.25 µM with COLO205 (colon), less than 0.1 µM in assay [1] and less than 0.1 µM in assay [2].

For `COc1cc(N2CCC(N3CCCCC3)CC2)c(Cl)cc1Nc1nccc(-c2c(-c3ccc(OC)c(C(=O)Nc4c(F)cccc4F)c3)nc3ccccn23)n1` [Example 105, 5-[3-(2-{[4-(1,4′-bipiperidin-1′-yl)-5-chloro-2-(methyloxy)phenyl]amino]-4-pyrimidinyl)imidazo[1,2-a]pyridin-2-yl]-N-(2,6-difluorophenyl)-2-(methyloxy)benzamide], the IC50 is less than 0.25 µM with COLO205 (colon), less than 0.1 µM in assay [1] and less than 0.1 µM in assay [2].

On to `COc1cc(N2CCC(N3C[C@@H](C)O[C@@H](C)C3)CC2)ccc1Nc1nccc(-c2c(-c3cccc(C(=O)Nc4c(F)cccc4F)c3)nc3ccccn23)n1` [Example 47, N-(2,6-difluorophenyl)-3-[3-(2-{[4-{4-[(2R,6S)-2,6-dimethyl-4-monpholinyl]-1-piperidinyl}-2-(methyloxy)phenyl]amino}-4-pyrimidinyl)imidazo[1,2-a]pyridin-2-yl]benzamide], for which the results for the IC50 (with COLO205 (colon); in assay [1]; in assay [2]) were 0.25 to 1 µM, less than 0.1 µM and 0.1 to 0.5 µM, respectively.

As to `CCOc1cc(C2CCN(CCS(C)(=O)=O)CC2)ccc1Nc1nccc(-c2c(-c3cccc(C(=O)Nc4c(F)cccc4F)c3)nc3ccccn23)n1` [Example 183, N-(2,6-difluorophenyl)-3-(3-{2-[(2-(ethyloxy)-4-{1-[2-(methylsulfonyl)ethyl]-4-piperidinyl}phenyl)amino]-4-pyrimidinyl}imidazo[1,2-a]pyridin-2-yl)benzamide], the figures for the IC50 (with COLO205 (colon); in assay [1]; in assay [2]) were 0.25 to 1 µM, less than 0.1 µM and less than 0.1 µM, respectively.

Consider `COc1cc(N2CCC(N3CCC(C)CC3)CC2)ccc1Nc1nccc(-c2c(-c3cccc(C(=O)Nc4c(F)cccc4F)c3)nc3ccccn23)n1` [Example 46, N-(2,6-difluorophenyl)-3-[3-(2-{[4-(4-methyl-1,4′-bipiperidin-1′-yl)-2-(methyloxy)phenyl]amino}-4-pyrimidinyl)imidazo[1,2-a]pyridin-2-yl]benzamide], for which the results for the IC50 (in the assay with COLO205 (colon); in assay [1]; in assay [2]) were more than 1 µM, 0.1 to 0.5 µM and 0.1 to 0.5 µM, respectively.

For `COc1cc(N2CCC(CN3CCN(C)CC3)CC2)ccc1Nc1nccc(-c2c(-c3cccc(C(=O)Nc4c(F)cccc4F)c3)nc3ccccn23)n1` [Example 37, N-(2,6-difluorophenyl)-3-(3-{2-[(2-(methyloxy)-4-{4-[(4-methyl-1-piperazinyl)methyl]-1-piperidinyl}phenyl)amino]-4-pyrimidinyl}imidazo[1,2-a]pyridin-2-yl)benzamide], the IC50 was 0.25 to 1 µM in the assay on COLO205 (colon), less than 0.1 µM in assay [1] and less than 0.1 µM in assay [2].

As for `CCOc1cc(N2CCN(C3CCN(CCF)CC3)CC2)ccc1Nc1nccc(-c2c(-c3cccc(C(=O)Nc4c(F)cccc4F)c3)nc3ccccn23)n1` [Example 91, N-(2,6-difluorophenyl)-3-(3-{2-[(2-(ethyloxy)-4-{4-[1-(2-fluoroethyl)-4-piperidinyl]-1-piperazinyl}phenyl)amino]-4-pyrimidinyl}imidazo[1,2-a]pyridin-2-yl)benzamide], the IC50 was 0.25 to 1 µM in the assay on COLO205 (colon), less than 0.1 µM in assay [1] and less than 0.1 µM in assay [2].

On to `CCOc1cc(N2CCC(N3CCCCC3)CC2)ccc1Nc1nccc(-c2c(-c3cccc(C(=O)Nc4c(F)cccc4F)c3)nc3ccccn23)n1` [Example 34, 3-[3-(2-{[4-(1,4′-bipiperidin-1′-yl)-2-(ethyloxy)phenyl]amino}-4-pyrimidinyl)imidazo[1,2-a]pyridin-2-yl]-N-(2,6-difluorophenyl)benzamide], for which the IC50 is 0.25 to 1 µM in the assay on COLO205 (colon), less than 0.1 µM in assay [1] and 0.1 to 0.5 µM in assay [2].

In the case of `COc1cc(N2CCC(N3CCCCC3)CC2)ccc1Nc1nccc(-c2c(-c3cccc(C(=O)Nc4ccc(Cl)cc4F)c3)nc3ccccn23)n1` [Example 45, 3-[3-(2-{[4-(1,4′-bipiperidin-1′-yl)-2-(methyloxy)phenyl]amino}-4-pirimidinyl)imidazo[1,2-a]pyridin-2-yl]-N-(4-chloro-2-fluorophenyl)benzamide], the IC50 in the assay on COLO205 (colon) was 0.25 to 1 µM; in assay [1], less than 0.1 µM; in assay [2], 0.1 to 0.5 µM.

With `Cn1cc(-c2cccc(Nc3nccc(-c4c(-c5cccc(C(=O)Nc6c(F)cccc6F)c5)nc5ccccn45)n3)c2)cn1` [Example 11, N-(2,6-difluorophenyl)-3-[3-(2-{[3-(1-methyl-1H-pyrazol-4-yl)phenyl]amino}-4-pyrimidinyl)imidazo[1,2-a]pyridin-2-yl]benzamide], the IC50 in the assay on COLO205 (colon) lay within 0.25 to 1 µM; in assay [1], 0.1 to 0.5 µM; in assay [2], 0.1 to 0.5 µM.

Regarding `COc1cc(CCN2CCN(C)CC2)ccc1Nc1nccc(-c2c(-c3ccc(OC(C)C)c(C(=O)Nc4c(F)cccc4F)c3)nc3ccccn23)n1` [Example 134, N-(2,6-difluorophenyl)-2-isopropoxy-5-{3-[2-({2-methoxy-4-[2-(4-methylpiperazin-1-yl)ethyl]phenyl}amino)pyrimidin-4-yl]imidazo[1,2-a]pyridin-2-yl}benzamide], the IC50 in the assay with COLO205 (colon) was 0.25 to 1 µM; in assay [1], less than 0.1 µM; in assay [2], less than 0.1 µM.

Take `COc1ccn2c(-c3ccnc(Nc4ccc(N5CCC(N6CCCCC6)CC5)cc4OC)n3)c(-c3ccc(OC)c(C(=O)Nc4c(F)cccc4F)c3)nc2c1` [Example 5, 5-[3-(2-{[4-(1,4′-bipiperidin-1′-yl)-2-(methyloxy)phenyl]amino}-4-pyrimidinyl)-7-(methyloxy)imidazo[1,2-a]pyridin-2-yl]-N-(2,6-difluorophenyl)-2-(methyloxy)benzamide]: the figures for the IC50 (in the assay on COLO205 (colon); in assay [1]; in assay [2]) were more than 1 µM, less than 0.1 µM and less than 0.1 µM, respectively.

For `COc1cc(N2CCC(O)CC2)ccc1Nc1nccc(-c2c(-c3cccc(C(=O)Nc4c(F)cccc4F)c3)nc3ccccn23)n1` [Example 73, N-(2,6-difluorophenyl)-3-[3-(2-{[4-(4-hydroxy-1-piperidinyl)-2-(methyloxy)phenyl]amino}-4-pyrimidinyl)imidazo[1,2-a]pyridin-2-yl]benzamide], the IC50 with COLO205 (colon) was 0.25 to 1 µM; in assay [1] it was less than 0.1 µM; in assay [2], 0.1 to 0.5 µM.

Take `CCc1cc(N2CCC(N3CCCCC3)CC2)ccc1Nc1nccc(-c2c(-c3cccc(C(=O)Nc4c(F)cccc4F)c3)nc3ccccn23)n1` [Example 40, 3-[3-(2-{[4-(1,4′-bipiperidin-1′-yl)-2-ethylphenyl]amino}-4-pyrimidinyl)imidazo[1,2-a]pyridin-2-yl]-N-(2,6-difluorophenyl)benzamide]: the IC50 was 0.25 to 1 µM in the assay on COLO205 (colon), less than 0.1 µM in assay [1] and 0.1 to 0.5 µM in assay [2].

In the case of `COc1cc(C2CCN(CCF)CC2)ccc1Nc1nccc(-c2c(-c3ccc(OC)c(C(=O)Nc4c(F)cccc4F)c3)nc3ccccn23)n1` [Example 179, N-(2,6-difluorophenyl)-5-[3-(2-{[4-[1-(2-fluoroethyl)-4-piperidinyl}-2-(methyloxy)phenyl]-amino}-4-pyrimidinyl)imidazo[1,2-a]pyridin-2-yl]-2-(methyloxy)benzamide], the IC50 is 0.25 to 1 µM in the assay on COLO205 (colon), less than 0.1 µM in assay [1] and less than 0.1 µM in assay [2].

In the case of `COc1cc(CCCN2CCCCC2)ccc1Nc1nccc(-c2c(-c3ccc(OC)c(C(=O)Nc4c(F)cccc4F)c3)nc3ccccn23)n1` [Example 140, N-(2,6-difluorophenyl)-2-(methyloxy)-5-{3-[2-({2-(methyloxy)-4-[3-(1-piperidinyl)propyl]phenyl}amino)-4-pyrimidinyl]imidazo[1,2-a]pyridin-2-yl}benzamide], the results for the IC50 (with COLO205 (colon); in assay [1]; in assay [2]) were 0.25 to 1 µM, less than 0.1 µM and less than 0.1 µM, respectively.
